According to US10919764B2, “Multi-chamber hypochlorous acid dispenser” (WIAB WATER […], priority 2016, dated 2021):

System: spores
Details: acid used for protonization of HOCl
Excerpt: In addition to buffering the product during storage and after application, acetic acid also has the advantage of improving the sporicidal effect by 40% compared to other acids used for protonization of HOCl.

CC(=O)O [acetic acid]
improvement of the sporicidal effect compared to other acids used for protonization of HOCl: 40%
